From patent US10344054B2, “Angiotensin-1-receptor antagonists” (Ferring B.V., priority 2016, dated 2019) come the findings set out here.

Starred links: 1 amine or outer side, 2 acyl side, 3 side chain; linkers in the order of their positions; H or OH if unused. Non-standard residues stand in square brackets, D forms with d. Residues, ends and D or L forms follow the SMILES beside them. X1 = O=C(CN(C[C@H](O)[C@@H](O)[C@H](O)[C@H](O)CO)[*:1])[*:2]; dPhe(2-Cl) = N[C@H](Cc1ccccc1Cl)C(=O)O; Chg = N[C@H](C(=O)O)C1CCCCC1

The target of test [1] is T1, hAT1R (Homo sapiens, UniProt P30556).
T1 sequence (P30556 1-359): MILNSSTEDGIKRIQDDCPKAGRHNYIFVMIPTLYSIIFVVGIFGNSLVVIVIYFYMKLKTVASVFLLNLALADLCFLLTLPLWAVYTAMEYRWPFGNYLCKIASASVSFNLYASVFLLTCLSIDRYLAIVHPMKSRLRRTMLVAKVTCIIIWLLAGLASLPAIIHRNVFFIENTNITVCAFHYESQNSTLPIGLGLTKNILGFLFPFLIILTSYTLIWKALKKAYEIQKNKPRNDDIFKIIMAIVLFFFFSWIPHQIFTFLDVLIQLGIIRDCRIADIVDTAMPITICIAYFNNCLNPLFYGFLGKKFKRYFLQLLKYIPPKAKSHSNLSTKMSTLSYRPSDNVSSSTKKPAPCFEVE
As to the kind of experiment: FLIPR calcium flux assay, Part I: agonist activity. To be noted: ChanTest hAT1R stable cells; % MPE, percent of the maximal possible effect; read-out: hAT1R Agonist Efficacy Agonist (%) Ave. Type of test: cell-based. As for the experimental part:
(§1) AT1 receptor (AT1R) agonists increase intracellular flux of calcium ions. AT1R antagonists can reduce the agonist effect. […] Compounds were first tested for agonism (Part I) followed by addition of the AT1R agonist angiotensin II to test for antagonist activity (Part II). This assay used a stable hAT1R expressing cell line (ChanTest hAT1R; ChanTest Corp A628). Intracellular flux of calcium in response to agonist was measured through real-time measurement of fluorescence induced through the interaction of Ca2+ (released from intracellular stores) and calcium-sensitive dye. In Part I, cells were exposed to varying concentrations of test compounds and immediately measured for agonist activity (EC50 and Efficacy).
(§2) ChanTest hAT1R stable cells were maintained in Ham's F12 containing 10% (v/v) heat inactivated fetal bovine serum (FBS-HI), 4 mM Glutamax, 1% NEAA, 50 ng/mL plasmocin, 400 μg/mL G418 at 37° C. under 5% CO2 in a humidified atmosphere.
(§3) For FLIPR assay, ChanTest hAT1R cells were trypsinized with 6 ml of Trypsin EDTA solution and harvested in phenol-red free DMEM containing 10% FBS-HI, 4 mM Glutamax and counted, spun down and resuspended in the same medium. The cell suspension was added to the wells of 384-well black PDL clear bottom plates at 2.5×10^4 cells/well, 20 μl/well.
(§4) Preparation of Loading Buffer:
(§5) • Loading Buffer: 1 vial of Calcium 5 Bulk Assay reagent was dissolved in 100 ml of 1× HBSS-20 mM Hepes buffer. • Probenecid was resuspended at 1 M in 1 M NaOH. Once the probenecid had gone into solution, an equal volume of H2O was added to make a solution of 500 mM followed by a 1:100 dilution in the Loading Buffer for a working concentration of 5 mM. The pH was adjusted to 7.4 using 1 M NaOH. Loading the Cells with Loading Buffer • Cell plates were removed from the incubator and 25 μl of Loading Buffer containing probenecid (5 mM) added to each well. • Plates were incubated for 1 hour at 37° C. under 5% CO2 in a humidified atmosphere. […] The remaining steps of the assay were carried forward by FLIPR Tetra. A baseline reading was taken at 1-second (s) intervals for 10 s followed by the addition of 5 μl of 10× compounds. The compound-induced fluorescence signal was then measured for 3 minutes with readings taken at 1-s intervals. • The cell plate was removed from the FLIPR and set aside for an additional 17 minutes. • The cell plate was then transferred back to the FLIPR Tetra, along with the 384 well Angiotensin II agonist dilution plate. A baseline reading was taken at 1-second (s) intervals for 10 seconds, followed by the addition of 5.5 μl of 10× Angiotensin II agonist. The agonist-induced fluorescence signal was then measured for 3 minutes with readings taken at 1-s intervals. • Overall, each well in the FLIPR assay was composed of the following components in a total volume of 55.5 μl:
(§6) Time-course results from the FLIPR Calcium 5 assay were expressed as relative fluorescence light units (RFU). The maximum minus minimum values (Max−Min) were used to quantify the strength of the signal. Mean RFU were calculated from replicate values and plotted on the y-axis versus compound concentration on a logarithmic scale on the x-axis, and a single-binding site, four parameter concentration response model: (MIN+((MAX−MIN)/(1+((EC50/x)^Hill)))), was used to perform non-linear regression analysis, generating concentration response curves. Reported parameters included agonist potency EC50 (the concentration causing half-maximal agonist response), antagonist potency IC50 (the concentration causing half-maximal inhibition of the agonist response for antagonist compounds) and efficacy (% MPE: percent of the maximal possible effect).

Test [2] concerns the target T1, hAT1R. Nature of the test: FLIPR calcium flux assay, Part II: antagonist activity against Angiotensin II. On hAT1R Antagonist Efficacy Antag (%) Ave: Angiotensin II 10 nM final concentration. Type of test: cell-based. To be noted: for Emax: read-out: hAT1R Antagonist Efficacy Antag (%) Ave; for IC50: read-out: hAT1R Antagonist IC50 Ave. As for the experimental part:
as §1, §2, §3, §4, §5, §6
On the technique in general: A change in cytosolic calcium serves as a functional read-out for many receptors and channels.

Consider `CC[C@H](C)[C@H](NC(=O)[C@H](Cc1ccc(O)cc1)NC(=O)[C@@H](NC(=O)[C@H](CCCNC(=N)N)NC(=O)CNC)C(C)C)C(=O)N[C@@H](Cc1c[nH]cn1)C(=O)N1CCC[C@H]1C(=O)N[C@H](Cc1ccccc1Cl)C(=O)O` [Compound 25, Sar-Arg-Val-Tyr-Ile-His-Pro-(D-Phe(2-Cl))—OH], for which the values for the Emax at hAT1R [1] and on hAT1R [2] were 2% and 100%, respectively. Moreover, the IC50 at hAT1R [2] worked out at 11.6 nM.
In the case of `CNCC(=O)N[C@@H](CCCNC(=N)N)C(=O)N[C@H](C(=O)N[C@@H](Cc1ccc(O)cc1)C(=O)N[C@H](C(=O)N[C@@H](Cc1c[nH]cn1)C(=O)N1CCC[C@H]1C(=O)N[C@H](Cc1ccccc1C(F)(F)F)C(=O)O)C1CCCCC1)C(C)C` [Compound 26, Sar-Arg-Val-Tyr-Chg-His-Pro-(D-Phe(2-CF3))—OH] (HELM PEPTIDE1{[Sar].R.V.Y.[O=C([C@@H](N[*:1])C1CCCCC1)[*:2]].H.P.[O=C(O)[C@@H](Cc1ccccc1C(F)(F)F)N[*:1]]}$$$$V2.0), the Emax on hAT1R [1] is 12%. Further, on hAT1R [2], the Emax worked out at 99% and the IC50 was determined as 32.9 nM.
For the compound `CNCC(=O)N[C@@H](CCCNC(=N)N)C(=O)N[C@H](C(=O)N[C@@H](Cc1ccc(O)cc1)C(=O)N[C@H](C(=O)N[C@@H](Cc1c[nH]cn1)C(=O)N1CCC[C@H]1C(=O)N[C@H](Cc1ccccc1C)C(=O)O)C1CCCCC1)C(C)C` [Compound 27, Sar-Arg-Val-Tyr-Chg-His-Pro-(D-Phe(2-Me))—OH] (HELM PEPTIDE1{[Sar].R.V.Y.[O=C([C@@H](N[*:1])C1CCCCC1)[*:2]].H.P.[Cc1ccccc1C[C@@H](N[*:1])C(=O)O]}$$$$V2.0), the Emax on hAT1R [1] stood at 8%. Moreover, at hAT1R [2], the Emax is 100% and the half-inhibitory concentration (IC50) is 14.5 nM.
Turning to `CNCC(=O)N[C@@H](CCCNC(=N)N)C(=O)N[C@H](C(=O)N[C@@H](Cc1ccc(O)c(Cl)c1)C(=O)N[C@H](C(=O)N[C@@H](Cc1c[nH]cn1)C(=O)N1CCC[C@H]1C(=O)N[C@H](Cc1ccccc1Cl)C(=O)O)C(C)C)C(C)C` [Compound 28, Sar-Arg-Val-Tyr(3-Cl)-Val-His-Pro-(D-Phe(2-Cl))—OH] (HELM PEPTIDE1{[Sar].R.V.[O=C([C@H](Cc1ccc(O)c(Cl)c1)N[*:1])[*:2]].V.H.P.[O=C(O)[C@@H](Cc1ccccc1Cl)N[*:1]]}$$$$V2.0), the Emax at hAT1R [1] turned out to be 5%. On hAT1R [2], the Emax worked out at 99% and the IC50 was determined as 12.2 nM.
In the same order, the values of `CC(C)[C@H](NC(=O)[C@H](CCCNC(=N)N)NC(=O)CNC[C@H](O)[C@@H](O)[C@H](O)[C@H](O)CO)C(=O)N[C@@H](Cc1ccc(O)cc1)C(=O)N[C@H](C(=O)N[C@@H](Cc1c[nH]cn1)C(=O)N1CCC[C@H]1C(=O)N[C@H](Cc1ccccc1Cl)C(=O)O)C(C)C` [Compound 29, Glac-Arg-Val-Tyr-Val-His-Pro-(D-Phe(2-Cl))—OH] (HELM PEPTIDE1{[O=C(CNC[C@H](O)[C@@H](O)[C@H](O)[C@H](O)CO)[*:2]].R.V.Y.V.H.P.[O=C(O)[C@@H](Cc1ccccc1Cl)N[*:1]]}$$$$V2.0) are 6%, 99% and 19.5 nM.
For `CNCC(=O)N[C@@H](CCCNC(=N)N)C(=O)N[C@H](C(=O)N[C@@H](Cc1cccc(O)c1)C(=O)N[C@H](C(=O)N[C@@H](Cc1c[nH]cn1)C(=O)N1CCC[C@H]1C(=O)N[C@H](Cc1ccccc1Cl)C(=O)O)C(C)C)C(C)C` [Compound 30, Sar-Arg-Val-(m-Tyr)-Val-His-Pro-(D-Phe(2-Cl))—OH] (HELM PEPTIDE1{[Sar].R.V.[O=C([C@H](Cc1cccc(O)c1)N[*:1])[*:2]].V.H.P.[O=C(O)[C@@H](Cc1ccccc1Cl)N[*:1]]}$$$$V2.0), in that order: 12%, 100% and 20.5 nM.
For `CC(C)[C@H](NC(=O)[C@H](CCCNC(=N)N)NC(=O)CNC[C@H](O)[C@@H](O)[C@H](O)[C@H](O)CO)C(=O)N[C@@H](Cc1ccc(O)cc1)C(=O)N[C@H](C(=O)N[C@@H](Cc1c[nH]cn1)C(=O)N1CCC[C@H]1C(=O)N[C@H](Cc1ccccc1Cl)C(=O)O)C1CCCCC1` [Compound 31, Glac-Arg-Val-Tyr-Chg-His-Pro-(D-Phe(2-Cl))—OH] (H-[X1]RVY[Chg]HP[dPhe(2-Cl)]-OH), in that order: 6%, 99% and 15.7 nM.
`CNCC(=O)N[C@@H](CCCNC(=N)N)C(=O)N[C@H](C(=O)N[C@@H](Cc1ccc(O)c(O)c1)C(=O)N[C@H](C(=O)N[C@@H](Cc1c[nH]cn1)C(=O)N1CCC[C@H]1C(=O)N[C@H](Cc1ccccc1Cl)C(=O)O)C(C)C)C(C)C` [Compound 32, Sar-Arg-Val-DOPA-Val-His-Pro-(D-Phe(2-Cl))—OH] (HELM PEPTIDE1{[Sar].R.V.[O=C([C@H](Cc1ccc(O)c(O)c1)N[*:1])[*:2]].V.H.P.[O=C(O)[C@@H](Cc1ccccc1Cl)N[*:1]]}$$$$V2.0): the Emax at hAT1R [1] turned out to be 5%. On hAT1R [2], the Emax came out at 99% and the IC50 amounted to 24.1 nM.
Regarding `CNCC(=O)N[C@@H](CCCNC(=N)N)C(=O)N[C@H](C(=O)N[C@@H](Cc1ccc(N)cc1)C(=O)N[C@H](C(=O)N[C@@H](Cc1c[nH]cn1)C(=O)N1CCC[C@H]1C(=O)N[C@H](Cc1ccccc1Cl)C(=O)O)C(C)C)C(C)C` [Compound 33, Sar-Arg-Val-Aph-Val-His-Pro-(D-Phe(2-Cl))—OH] (HELM PEPTIDE1{[Sar].R.V.[Nc1ccc(C[C@H](N[*:1])C(=O)[*:2])cc1].V.H.P.[O=C(O)[C@@H](Cc1ccccc1Cl)N[*:1]]}$$$$V2.0), the Emax on hAT1R [1] is 3%. Moreover, at hAT1R [2], the Emax is 100% and the IC50 stood at 17.1 nM.
In the same order, the values of `CNCC(=O)N[C@@H](CCCNC(=N)N)C(=O)N[C@H](C(=O)N[C@@H](Cc1ccc(O)cc1)C(=O)N[C@H](C(=O)N[C@@H](Cc1c[nH]cn1)C(=O)N1CCC[C@H]1C(=O)N[C@H](Cc1cccc2ccccc12)C(=O)O)C1CCCCC1)C(C)C` [Compound 34, Sar-Arg-Val-Tyr-Chg-His-Pro-(D-1Nal)-OH] (HELM PEPTIDE1{[Sar].R.V.Y.[O=C([C@@H](N[*:1])C1CCCCC1)[*:2]].H.P.[O=C(O)[C@@H](Cc1cccc2ccccc12)N[*:1]]}$$$$V2.0) are 5%, 100% and 15.5 nM.
In the same order, the values of `CNCC(=O)N[C@@H](CCCNC(=N)N)C(=O)N[C@H](C(=O)N[C@@H](Cc1ccc(O)cc1)C(=O)N[C@H](C(=O)N[C@@H](Cc1c[nH]cn1)C(=O)N1CCC[C@H]1C(=O)N[C@H](Cc1csc2ccccc12)C(=O)O)C1CCCCC1)C(C)C` [Compound 35, Sar-Arg-Val-Tyr-Chg-His-Pro-(D-(3-benzothienyl)alanine)-OH] (HELM PEPTIDE1{[Sar].R.V.Y.[O=C([C@@H](N[*:1])C1CCCCC1)[*:2]].H.P.[O=C(O)[C@@H](Cc1csc2ccccc12)N[*:1]]}$$$$V2.0) are 6%, 100% and 14.3 nM.

A word on the IC50: it is the midpoint of a concentration-inhibition curve.
